Source: US5925730A, “GnRH antagonists” (Ferring BV, priority 1997, dated 1999)
Values belong to the compound of their own block, whether it stands above or below them. Starred links: 1 amine or outer side, 2 acyl side, 3 side chain; linkers in the order of their positions; H or OH if unused. Non-standard residues stand in square brackets, D forms with d. Residues, ends and D or L forms follow the SMILES beside them. Groups on a side chain read outwards from the residue. *: point of attachment. dPhe(4-NHCONH2) = NC(=O)Nc1ccc(C[C@@H](N)C(=O)O)cc1; Phe(4-NHCONH2) = NC(=O)Nc1ccc(C[C@H](N)C(=O)O)cc1; dPhe(4-NH2) = Nc1ccc(C[C@@H](N)C(=O)O)cc1; dPhe(4-Cl) = N[C@H](Cc1ccc(Cl)cc1)C(=O)O; Phe(4-NH2) = Nc1ccc(C[C@H](N)C(=O)O)cc1; d2Nal = N[C@H](Cc1ccc2ccccc2c1)C(=O)O; Lys(iPr) = CC(C)NCCCC[C@H](N)C(=O)O; d3Pal = N[C@H](Cc1cccnc1)C(=O)O; X1 = O=C1NC[C@@H](C(=O)*)N1; CO = O=C([*:1])[*:2]

Legend:
secretion of LH = assay: in vivo rat LH suppression test (circulating LH levels in castrated male rats after sc injection); parameters: species or system castrated male Sprague-Dawley rats; details: for effectiveness in suppression of LH compared with Acyline, day 1 through day 4 (96 hours): days 1-4; for effectiveness in suppression of LH compared with Acyline, first two days: days 1-2; for suppression of LH compared with Acyline at days 3 and 4 (72 and 96 hours; after the first 2 days): days 3-4; for effectiveness in suppression of LH compared with Acyline, day 1 through day 3: days 1-3
Method: The peptide is assayed in vivo to determine its effectiveness to suppress the secretion of LH in rats. Measurement of circulating LH levels in castrated male Sprague-Dawley rats treated subcutaneously with the peptide is carried out as reported in C. Rivier et al. Biol. Reproduc., 1983, 29, 374-378. The peptides are first dissolved at a concentration of 1.0 or 10 mg/ml in bacteriostatic water and then further diluted in 0.04 M phosphate buffer containing 0.1% BSA. Subsequent dilutions are made in phosphate buffer. The peptides are injected sc into 5 rats, and blood samples (300 μl) are collected under metotane anesthesia. Sera (50 μl) are tested for LH levels in duplicate using reagents provided by the National Pituitary and Hormone Distribution Program of the NIDDK.

[1] = water solubility compared with Acyline; format: physicochemical
[2] = hydrophilicity by RP-HPLC retention time (TEAP pH 7.0 / CH3CN gradient); format: physicochemical; details: for hydrophilicity compared with Azaline B: RP-HPLC elution

Compound: CC(=O)N[C@H](Cc1ccc2ccccc2c1)C(=O)N[C@H](Cc1ccc(Cl)cc1)C(=O)N[C@H](Cc1cccnc1)C(=O)N[C@@H](CO)C(=O)N[C@@H](Cc1ccc(NC(N)=O)cc1)C(=O)N[C@H](Cc1ccc(NC(N)=O)cc1)C(=O)N[C@@H](CC(C)C)C(=O)N[C@@H](CCCCNC(C)C)C(=O)N1CCC[C@H]1C(=O)N[C@H](C)C(N)=O [Example 1L, Ac-β-D-2Nal-D-4Cpa-D-3Pal-Ser-4Aph(carbamoyl)-D-4Aph(carbamoyl)-Leu-Lys(isopropyl)-Pro-D-Ala-NH2] (Ac-[d2Nal][dPhe(4-Cl)][d3Pal]S[Phe(4-NHCONH2)][dPhe(4-NHCONH2)]L[Lys(iPr)]P[dA]-NH2)
- duration of bioactivity for the suppression of LH (rating in words) (secretion of LH; 50 micrograms sc): long-acting
- effectiveness in suppression of LH compared with Acyline, day 1 through day 4 (96 hours) (secretion of LH; 50 micrograms sc): about as effective as Acyline

Compound: CNC(=O)Nc1ccc(C[C@H](NC(=O)[C@H](CO)NC(=O)[C@@H](Cc2cccnc2)NC(=O)[C@@H](Cc2ccc(Cl)cc2)NC(=O)[C@@H](Cc2ccc3ccccc3c2)NC(C)=O)C(=O)N[C@H](Cc2ccc(NC(=O)NC)cc2)C(=O)N[C@@H](CC(C)C)C(=O)N[C@@H](CCCCNC(C)C)C(=O)N2CCC[C@H]2C(=O)N[C@H](C)C(N)=O)cc1 [Example 1M, Ac-β-D-2Nal-D-4Cpa-D-3Pal-Ser-4Aph(methylcarbamoyl)-D-4Aph(methylcarbamoyl)-Leu-Lys(isopropyl)-Pro-D-Ala-NH2] (Ac-[d2Nal][dPhe(4-Cl)][d3Pal]S[Phe(4-NH2)]([CO-NHMe])[dPhe(4-NH2)]([CO-NHMe])L[Lys(iPr)]P[dA]-NH2)
- effectiveness in suppression of LH compared with Acyline, first two days (secretion of LH; 50 micrograms sc): about as effective as Acyline
- suppression of LH compared with Acyline at days 3 and 4 (72 and 96 hours; after the first 2 days) (secretion of LH; 50 micrograms sc): begins to drop off somewhat

- water solubility compared with Acyline [1]: more water soluble than Acyline
Compound: CC(=O)Nc1ccc(C[C@@H](NC(=O)[C@H](Cc2ccc(NC(=O)[C@@H]3CNC(=O)N3)cc2)NC(=O)[C@H](CO)NC(=O)[C@@H](Cc2cccnc2)NC(=O)[C@@H](Cc2ccc(Cl)cc2)NC(=O)[C@@H](Cc2ccc3ccccc3c2)NC(C)=O)C(=O)N[C@@H](CC(C)C)C(=O)N[C@@H](CCCCNC(C)C)C(=O)N2CCC[C@H]2C(=O)N[C@H](C)C(N)=O)cc1 [Example 3A] (Ac-[d2Nal][dPhe(4-Cl)][d3Pal]S[Phe(4-NH2)](X1)[dPhe(4-NH2)](Ac)L[Lys(iPr)]P[dA]-NH2)

Compound: Ac-D-2Nal-D-4Cpa-D-3Pal-Ser-4Aph(D-hydroorotyl)-D-4Amf(Ac)-Leu-ILys-Pro-D- Ala-NH2 [Example 5A]
- suppression of LH compared with Acyline at 96 hours / 4 days (after day 3) (secretion of LH; 50 micrograms sc, 96 hours): somewhat superior to Acyline
- effectiveness in suppression of LH compared with Acyline, day 1 through day 3 (secretion of LH; 50 micrograms sc): substantially the same as Acyline

Compound: Ac-D-2Nal-D-4Cpa-D-3Pal-Ser-4Aph(D-hydroorotyl)-D-4Amf(Cbm)-Leu-ILys-Pro-D-Ala-NH2 [Example 5]
- effectiveness in suppression of LH compared with Acyline, first two days (secretion of LH; 50 micrograms sc): about as long as Acyline
- suppression of LH compared with Acyline at days 3 and 4 (72 and 96 hours; after the first 2 days) (secretion of LH; 50 micrograms sc): some lesser degree of suppression

Compound: Ac-D-2Nal-D-4Cpa-D-3Pal-Ser-4Aph(D/L-2-imidazolidone-4-carbonyl)-D-4Aph(Ac)-Leu-ILys-Pro-D-Ala-NH2 [Example 3]
- duration of bioactivity for the suppression of LH (rating in words) (secretion of LH; 50 micrograms sc): long duration
- suppression of LH compared with Acyline at days 3 and 4 (72 and 96 hours; after the first 2 days) (secretion of LH; 50 micrograms sc): marginally better

Compound: Ac-D-2Nal-D-4Cpa-D-3Pal-Ser-4Aph(L-Imz)-D-4Amf(carbamoyl)-Leu-ILys-Pro-D-Ala-NH2 [Example 3B]
- duration of bioactivity for the suppression of LH (rating in words) (secretion of LH; 50 micrograms sc): long duration
- suppression of LH compared with Acyline at 96 hours / 4 days (after day 3) (secretion of LH; 50 micrograms sc, 96 hours): somewhat superior
- effectiveness in suppression of LH compared with Acyline, day 1 through day 3 (secretion of LH; 50 micrograms sc): substantially the same as Acyline

Compound: Ac-D-2Nal-D-4Cpa-D-3Pal-Ser-4Aph(hydroorotyl)-D-4Amf(MeCbm)-Leu-ILys-Pro-D-Ala-NH2 [Example 4]
- duration of bioactivity for the suppression of LH (rating in words) (secretion of LH; 50 micrograms sc): very long-acting
- suppression of LH secretion compared with Acyline (time not given) (secretion of LH; 50 micrograms sc): better suppression of LH secretion than Acyline

- hydrophilicity compared with Cetrorelix [2]: more hydrophilic than Cetrorelix
Compound: Ac-D-2Nal-D-4Cpa-D-3Pal-Ser-4Aph(hydroorotyl)-D-Cit-Leu-ILys-Pro-D-Ala-NH2 [Example 2]
- suppression of LH at 3 days (comparator apparently Cetrorelix) (secretion of LH; tested as in Example 1, 3 days): marginally better
- suppression of LH at 96 hours (comparator apparently Cetrorelix) (secretion of LH; tested as in Example 1, 96 hours): substantially better
- duration of bioactivity for suppression of LH secretion compared with Cetrorelix (secretion of LH; tested as in Example 1, dose not given): as long duration of bioactivity as Cetrorelix

Compound: Ac-β-D-2Nal-D-4Cpa-D-3Pal-Ser-4Amf(D-hydroorotyl)-D-4Aph(acetyl)-Leu- Lys(isopropyl)-Pro-D-Ala-NH2 [Example 6C]
- activity in suppression of LH secretion compared with Acyline after 3 days (secretion of LH; 50 micrograms sc, 3 days): substantially less effective than Acyline
- suppression of LH compared with Acyline at 96 hours / 4 days (after day 3) (secretion of LH; 50 micrograms sc, 96 hours): continues to significantly drop in biopotency
- effectiveness in suppression of LH compared with Acyline, first two days (secretion of LH; 50 micrograms sc): substantially as effective

Compound: Ac-β-D-2Nal-D-4Cpa-D-3Pal-Ser-4Amf(hydroorotyl)-D-4Amf(acetyl)-Leu-Lys(isopropyl)-Pro-D-Ala-NH2 [Example 6]
- duration of bioactivity for the suppression of LH (rating in words) (secretion of LH; 50 micrograms sc): long-acting
- effectiveness in suppression of LH compared with Acyline, first two days (secretion of LH; 50 micrograms sc): about the same as Acyline
- suppression of LH compared with Acyline at days 3 and 4 (72 and 96 hours; after the first 2 days) (secretion of LH; 50 micrograms sc): nearly equal to that of Acyline

Compound: Ac-β-D-2Nal-D-4Cpa-D-3Pal-Ser-4Amf(hydroorotyl)-D-4Aph(acetyl)-Leu-Lys(isopropyl)-Pro-D-Ala-NH2 [Example 1F]
- duration of bioactivity for the suppression of LH (rating in words) (secretion of LH; 50 micrograms sc): long-acting
- effectiveness in suppression of LH compared with Acyline, day 1 through day 4 (96 hours) (secretion of LH; 50 micrograms sc): about as effective as Acyline

Compound: Ac-β-D-2Nal-D-4Cpa-D-3Pal-Ser-4Amf(hydroorotyl)-D-4Aph(carbamoyl)-Leu-Lys(isopropyl)-Pro-D-Ala-NH2 [Example 6A]
- activity in suppression of LH secretion compared with Acyline after 1 day (secretion of LH; 50 micrograms sc): as active as Acyline
- activity in suppression of LH secretion compared with Acyline after 2 days (secretion of LH; 50 micrograms sc): nearly as active
- activity in suppression of LH secretion compared with Acyline after 3 days (secretion of LH; 50 micrograms sc, 3 days): somewhat less active
- suppression of LH compared with Acyline at 96 hours / 4 days (after day 3) (secretion of LH; 50 micrograms sc, 96 hours): about the same activity as Acyline

Compound: Ac-β-D-2Nal-D-4Cpa-D-3Pal-Ser-4Amf(hydroorotyl)-D-4Aph(methylcarbamoyl)-Leu-Lys(isopropyl)-Pro-D-Ala-NH2 [Example 6B]
- activity in suppression of LH secretion compared with Acyline after 1 day (secretion of LH; 50 micrograms sc): as active as Acyline
- activity in suppression of LH secretion compared with Acyline after 2 days (secretion of LH; 50 micrograms sc): about as active
- suppression of LH compared with Acyline at days 3 and 4 (72 and 96 hours; after the first 2 days) (secretion of LH; 50 micrograms sc): significantly lesser degree of suppression

- hydrophilicity compared with Azaline B [2]: more hydrophilic than Azaline B
Compound: Ac-β-D-2Nal-D-4Cpa-D-3Pal-Ser-4Aph(hydroorotyl)-D-4Aph(D-hydroorotyl)-Leu-Lys(isopropyl)-Pro-D-Ala-NH2 [Example 1H]
- duration of bioactivity for the suppression of LH (rating in words) (secretion of LH; 50 micrograms sc): very long-acting
- suppression of LH compared with Acyline at 96 hours / 4 days (after day 3) (secretion of LH; 50 micrograms sc, 96 hours): substantially more effective than Acyline
- effectiveness in suppression of LH compared with Acyline, day 1 through day 3 (secretion of LH; 50 micrograms sc): about as effective as Acyline

- hydrophilicity compared with Azaline B [2]: more hydrophilic than Azaline B
Compound: Ac-β-D-2Nal-D-4Cpa-D-3Pal-Ser-4Aph(hydroorotyl)-D-4Aph(hydroorotyl)-Leu-Lys(isopropyl)-Pro-D-Ala-NH2 [Example 1G]
- duration of bioactivity for the suppression of LH (rating in words) (secretion of LH; 50 micrograms sc): long-acting
- effectiveness in suppression of LH compared with Acyline, day 1 through day 4 (96 hours) (secretion of LH; 50 micrograms sc): about as effective as Acyline

Compound: Ac-β-D-2Nal-D-Cpa-D-3Pal-Ser-4Aph(D-hydroorotyl)-D-4Aph(acetyl)-Leu-Lys(isopropyl)-Pro-D-Ala-NH2 [Example 1D]
- duration of bioactivity for the suppression of LH (rating in words) (secretion of LH; 50 micrograms sc): long-acting
- effectiveness in suppression of LH compared with Acyline, day 1 through day 4 (96 hours) (secretion of LH; 50 micrograms sc): about as effective as Acyline

Compound: Ac-β-D-2Nal-D-Cpa-D-3Pal-Ser-4Aph(D/L-hydroorotyl)-D-4Aph(acetyl)-Leu-Lys(isopropyl)-Pro-D-Ala-NH2 [Example 1C]
- duration of bioactivity for the suppression of LH (rating in words) (secretion of LH; 50 micrograms sc): long-acting
- effectiveness in suppression of LH compared with Acyline, day 1 through day 4 (96 hours) (secretion of LH; 50 micrograms sc): about as effective as Acyline

Compound: Ac-β-D-2Nal-D-Cpa-D-3Pal-Ser-4Aph(hydroorotyl)-D-4Aph(acetyl)-Leu-Lys(isopropyl)-Pro-D-Ala-NH2 [Example 1B]
- duration of bioactivity for the suppression of LH (rating in words) (secretion of LH; 50 micrograms sc): very long-acting
- effectiveness in suppression of LH compared with Acyline, day 1 through day 4 (96 hours) (secretion of LH; 50 micrograms sc): about as effective as Acyline

Compound: Acetyl-β-D-2Nal-D-4Cpa-D-3Pal-Ser-4Aph(hydroorotyl)-D-3Pal-Leu-Lys(isopropyl)-Pro-D-Ala-NH2 [Example 1K]
- duration of bioactivity for the suppression of LH (rating in words) (secretion of LH; 50 micrograms sc): very long-acting
- LH levels after 96 hours as percentage of the LH levels of rats injected with Acyline (secretion of LH; 50 micrograms sc, 96 hours, comparator Acyline 50 micrograms): about 35%
- effectiveness in suppression of LH compared with Acyline, day 1 through day 3 (secretion of LH; 50 micrograms sc): about as effective as Acyline

- hydrophilicity compared with Azaline B [2]: more hydrophilic than Azaline B
Compound: methylcarbamoyl-β-D-2Nal-D-4Cpa-D-3Pal-Ser-4Aph(hydroorotyl)-D-4Aph(acetyl)-Leu-Lys(isopropyl)-Pro-D-Ala-NH2 [Example 1J]
- duration of bioactivity for the suppression of LH (rating in words) (secretion of LH; 50 micrograms sc): very long-acting
- how much more effective than Acyline in suppression of LH after 96 hours (secretion of LH; 50 micrograms sc, 96 hours): ~50%
- effectiveness in suppression of LH compared with Acyline, day 1 through day 3 (secretion of LH; 50 micrograms sc): about as effective as Acyline
